Measured values published in the NIST ThermoML archive (doi:10.1021/je300603d).
Numbers after ± are expanded uncertainties.

Test: mn = molality of the nth substance listed, in mol/kg
Settings: 101 kPa, Liquid; for electrical conductivity: Alternating current cell with electrodes; for viscosity: Falling or rolling sphere viscometry; for mass density: Vibrating tube method

F[B-](F)(F)F.[Na+] [sodium tetrafluoroborate] + CCCCn1cc[n+](C)c1.F[B-](F)(F)F
Settings	electrical conductivity [S/m]	mass density [kg/m3]	viscosity [mPa·s]
238.15 K, m1 = 0.058	0.00083 ± 1e-05	–	–
238.15 K, m1 = 0.1159	0.00077 ± 1e-05	–	–
238.15 K, m1 = 0.1739	0.00071 ± 1e-05	–	–
258.15 K, m1 = 0.058	0.0211 ± 0.0001	–	–
258.15 K, m1 = 0.1159	0.0201 ± 0.0001	–	–
258.15 K, m1 = 0.1739	0.0188 ± 0.0003	–	–
278.15 K, m1 = 0.0273	–	1218 ± 0.4	–
278.15 K, m1 = 0.054	–	1219.4 ± 0.4	–
278.15 K, m1 = 0.058	0.1075 ± 0.0005	1219.2 ± 0.4	400.2 ± 28
278.15 K, m1 = 0.0676	–	1220.7 ± 0.4	–
278.15 K, m1 = 0.0903	–	1221.3 ± 0.4	–
278.15 K, m1 = 0.1069	–	1222.4 ± 0.4	–
278.15 K, m1 = 0.1159	0.103 ± 0.001	1222.8 ± 0.4	421.4 ± 30
278.15 K, m1 = 0.1377	–	1224.3 ± 0.4	–
278.15 K, m1 = 0.1739	0.0986 ± 0.0007	1226.2 ± 0.4	454.8 ± 34
288.15 K, m1 = 0.0273	–	1210.7 ± 0.4	–
288.15 K, m1 = 0.054	–	1212.2 ± 0.4	–
288.15 K, m1 = 0.058	–	1212.1 ± 0.4	204.4 ± 9.7
288.15 K, m1 = 0.0676	–	1213.4 ± 0.4	–
288.15 K, m1 = 0.0903	–	1214 ± 0.4	–
288.15 K, m1 = 0.1069	–	1215.1 ± 0.4	–
288.15 K, m1 = 0.1159	–	1215.5 ± 0.4	215.5 ± 11
288.15 K, m1 = 0.1377	–	1217 ± 0.4	–
288.15 K, m1 = 0.1739	–	1218.9 ± 0.4	232.6 ± 12
298.15 K, m1 = 0.0273	–	1203.5 ± 0.4	–
298.15 K, m1 = 0.054	–	1204.9 ± 0.4	–
298.15 K, m1 = 0.058	0.341 ± 0.002	1205 ± 0.4	115.5 ± 3.3
298.15 K, m1 = 0.0676	–	1206.1 ± 0.4	–
298.15 K, m1 = 0.0903	–	1206.8 ± 0.4	–
298.15 K, m1 = 0.1069	–	1207.9 ± 0.4	–
298.15 K, m1 = 0.1159	0.328 ± 0.002	1208.3 ± 0.4	121.4 ± 3.7
298.15 K, m1 = 0.1377	–	1209.8 ± 0.4	–
298.15 K, m1 = 0.1739	0.316 ± 0.002	1211.6 ± 0.4	130.4 ± 4.3
308.15 K, m1 = 0.0273	–	1196.3 ± 0.4	–
308.15 K, m1 = 0.054	–	1197.7 ± 0.4	–
308.15 K, m1 = 0.058	–	1198 ± 0.4	70.66 ± 0.9
308.15 K, m1 = 0.0676	–	1199 ± 0.4	–
308.15 K, m1 = 0.0903	–	1199.6 ± 0.4	–
308.15 K, m1 = 0.1069	–	1200.7 ± 0.4	–
308.15 K, m1 = 0.1159	–	1201.1 ± 0.4	74.52 ± 1.1
308.15 K, m1 = 0.1377	–	1202.6 ± 0.4	–
308.15 K, m1 = 0.1739	–	1204.4 ± 0.4	79.37 ± 1.3
318.15 K, m1 = 0.0273	–	1189.2 ± 0.4	–
318.15 K, m1 = 0.054	–	1190.7 ± 0.4	–
318.15 K, m1 = 0.058	0.794 ± 0.004	1190.9 ± 0.4	46.1 ± 0.46
318.15 K, m1 = 0.0676	–	1191.9 ± 0.4	–
318.15 K, m1 = 0.0903	–	1192.5 ± 0.4	–
318.15 K, m1 = 0.1069	–	1193.6 ± 0.4	–
318.15 K, m1 = 0.1159	0.769 ± 0.004	1194 ± 0.4	48.94 ± 0.49
318.15 K, m1 = 0.1377	–	1195.5 ± 0.4	–
318.15 K, m1 = 0.1739	0.745 ± 0.004	1197.3 ± 0.4	51.72 ± 0.38
328.15 K, m1 = 0.0273	–	1182.2 ± 0.4	–
328.15 K, m1 = 0.054	–	1183.6 ± 0.4	–
328.15 K, m1 = 0.058	–	1183.9 ± 0.4	31.69 ± 0.32
328.15 K, m1 = 0.0676	–	1184.9 ± 0.4	–
328.15 K, m1 = 0.0903	–	1185.5 ± 0.4	–
328.15 K, m1 = 0.1069	–	1186.6 ± 0.4	–
328.15 K, m1 = 0.1159	–	1187 ± 0.4	33.98 ± 0.34
328.15 K, m1 = 0.1377	–	1188.4 ± 0.4	–
328.15 K, m1 = 0.1739	–	1190.3 ± 0.4	35.69 ± 0.36
338.15 K, m1 = 0.0273	–	1175.3 ± 0.4	–
338.15 K, m1 = 0.054	–	1177 ± 0.4	–
338.15 K, m1 = 0.058	1.5 ± 0.008	1176.8 ± 0.4	22.75 ± 0.23
338.15 K, m1 = 0.0676	–	1177.9 ± 0.4	–
338.15 K, m1 = 0.0903	–	1178.6 ± 0.4	–
338.15 K, m1 = 0.1069	–	1179.6 ± 0.4	–
338.15 K, m1 = 0.1159	1.464 ± 0.007	1180 ± 0.4	23.85 ± 0.24
338.15 K, m1 = 0.1377	–	1181.5 ± 0.4	–
338.15 K, m1 = 0.1739	1.425 ± 0.007	1183.3 ± 0.4	23.94 ± 0.24
348.15 K, m1 = 0.0273	–	1168.4 ± 0.4	–
348.15 K, m1 = 0.054	–	1169.8 ± 0.4	–
348.15 K, m1 = 0.058	–	1169.8 ± 0.4	16.93 ± 0.17
348.15 K, m1 = 0.0676	–	1171 ± 0.4	–
348.15 K, m1 = 0.0903	–	1171.7 ± 0.4	–
348.15 K, m1 = 0.1069	–	1172.7 ± 0.4	–
348.15 K, m1 = 0.1159	–	1173.1 ± 0.4	17.63 ± 0.18
348.15 K, m1 = 0.1377	–	1174.6 ± 0.4	–
348.15 K, m1 = 0.1739	–	1176.4 ± 0.4	17.97 ± 0.18
358.15 K, m1 = 0.0273	–	1161.6 ± 0.4	–
358.15 K, m1 = 0.054	–	1163 ± 0.4	–
358.15 K, m1 = 0.058	2.47 ± 0.01	1162.7 ± 0.4	13 ± 0.13
358.15 K, m1 = 0.0676	–	1164.2 ± 0.4	–
358.15 K, m1 = 0.0903	–	1164.8 ± 0.4	–
358.15 K, m1 = 0.1069	–	1165.9 ± 0.4	–
358.15 K, m1 = 0.1159	2.4 ± 0.01	1166.3 ± 0.4	13.53 ± 0.14
358.15 K, m1 = 0.1377	–	1167.7 ± 0.4	–
358.15 K, m1 = 0.1739	2.35 ± 0.01	1169.6 ± 0.4	14.01 ± 0.14
378.15 K, m1 = 0.058	3.66 ± 0.02	–	–
378.15 K, m1 = 0.1159	3.57 ± 0.02	–	–
378.15 K, m1 = 0.1739	3.5 ± 0.02	–	–
398.15 K, m1 = 0.058	5.04 ± 0.03	–	–
398.15 K, m1 = 0.1159	4.93 ± 0.03	–	–
398.15 K, m1 = 0.1739	4.84 ± 0.02	–	–
418.15 K, m1 = 0.058	6.58 ± 0.03	–	–
418.15 K, m1 = 0.1159	6.45 ± 0.03	–	–
418.15 K, m1 = 0.1739	6.35 ± 0.03	–	–
438.15 K, m1 = 0.058	8.24 ± 0.04	–	–
438.15 K, m1 = 0.1159	8.11 ± 0.04	–	–
438.15 K, m1 = 0.1739	7.98 ± 0.04	–	–
458.15 K, m1 = 0.058	10 ± 0.05	–	–
458.15 K, m1 = 0.1159	9.85 ± 0.05	–	–
458.15 K, m1 = 0.1739	9.7 ± 0.05	–	–
